Source: ChEMBL document CHEMBL2380247, “Synthesis and biological evaluation of novel aliphatic amido-quaternary ammonium salts for anticancer chemotherapy: part II” (2013)
The source made the active and inactive calls. The calls are words filed in the database; no cut-off is given here.

Key:
[1] = tested on: NUGC-3; assay: Antiproliferative activity against human NUGC3 cells at 0.3 uM by SRB assay; format: functional
[2] = tested on: NUGC-3; assay: Antiproliferative activity against human NUGC3 cells at 0.1 uM by SRB assay; format: functional
[3] = tested on: NUGC-3; assay: Antiproliferative activity against human NUGC3 cells at 1 uM by SRB assay; format: functional
[4] = tested on: NUGC-3; assay: Antiproliferative activity against human NUGC3 cells at 10 uM by SRB assay; format: functional
[5] = tested on: NUGC-3; assay: Antiproliferative activity against human NUGC3 cells at 3 uM by SRB assay; format: functional
[6] = tested on: MDA-MB-231; assay: Antiproliferative activity against human MDA-MB-231 cells at 0.1 uM by SRB assay; format: functional
[7] = tested on: MDA-MB-231; assay: Antiproliferative activity against human MDA-MB-231 cells at 0.3 uM by SRB assay; format: functional
[8] = tested on: MDA-MB-231; assay: Antiproliferative activity against human MDA-MB-231 cells at 1 uM by SRB assay; format: functional
[9] = tested on: MDA-MB-231; assay: Antiproliferative activity against human MDA-MB-231 cells at 10 uM by SRB assay; format: functional
[10] = tested on: MDA-MB-231; assay: Antiproliferative activity against human MDA-MB-231 cells at 3 uM by SRB assay; format: functional
[11] = tested on: ACHN; assay: Antiproliferative activity against human ACHN cells at 0.1 uM by SRB assay; format: functional
[12] = tested on: ACHN; assay: Antiproliferative activity against human ACHN cells at 1 uM by SRB assay; format: functional
[13] = tested on: ACHN; assay: Antiproliferative activity against human ACHN cells at 0.3 uM by SRB assay; format: functional
[14] = tested on: ACHN; assay: Antiproliferative activity against human ACHN cells at 3 uM by SRB assay; format: functional
[15] = tested on: ACHN; assay: Antiproliferative activity against human ACHN cells at 10 uM by SRB assay; format: functional
[16] = tested on: NCI-H23; assay: Antiproliferative activity against human NCI-H23 cells at 0.3 uM by SRB assay; format: functional
[17] = tested on: NCI-H23; assay: Antiproliferative activity against human NCI-H23 cells at 0.1 uM by SRB assay; format: functional
[18] = tested on: NCI-H23; assay: Antiproliferative activity against human NCI-H23 cells at 3 uM by SRB assay; format: functional
[19] = tested on: NCI-H23; assay: Antiproliferative activity against human NCI-H23 cells at 1 uM by SRB assay; format: functional
[20] = tested on: NCI-H23; assay: Antiproliferative activity against human NCI-H23 cells at 10 uM by SRB assay; format: functional
[21] = tested on: PC-3; assay: Antiproliferative activity against human PC3 cells at 0.1 uM by SRB assay; format: functional
[22] = tested on: PC-3; assay: Antiproliferative activity against human PC3 cells at 1 uM by SRB assay; format: functional
[23] = tested on: PC-3; assay: Antiproliferative activity against human PC3 cells at 0.3 uM by SRB assay; format: functional
[24] = tested on: PC-3; assay: Antiproliferative activity against human PC3 cells at 3 uM by SRB assay; format: functional
[25] = tested on: HCT-15; assay: Antiproliferative activity against human HCT15 cells at 0.1 uM by SRB assay; format: functional
[26] = tested on: PC-3; assay: Antiproliferative activity against human PC3 cells at 10 uM by SRB assay; format: functional
[27] = tested on: HCT-15; assay: Antiproliferative activity against human HCT15 cells at 0.3 uM by SRB assay; format: functional
[28] = tested on: HCT-15; assay: Antiproliferative activity against human HCT15 cells at 3 uM by SRB assay; format: functional
[29] = tested on: HCT-15; assay: Antiproliferative activity against human HCT15 cells at 1 uM by SRB assay; format: functional
[30] = tested on: HCT-15; assay: Antiproliferative activity against human HCT15 cells at 10 uM by SRB assay; format: functional
[31] = molecular target: Rho-related GTP-binding protein RhoB (Homo sapiens) (UniProt P62745); assay: Transactivation of RhoB in human HeLa cells by luciferase reporter assay; format: cell-based
[32] = tested on: NCI-H23; assay: Antiproliferative activity against human NCI-H23 cells by SRB assay; format: functional
[33] = tested on: NUGC-3; assay: Antiproliferative activity against human NUGC3 cells by SRB assay; format: functional
[34] = tested on: HCT-15; assay: Antiproliferative activity against human HCT15 cells by SRB assay; format: functional
[35] = tested on: ACHN; assay: Antiproliferative activity against human ACHN cells by SRB assay; format: functional
[36] = tested on: MDA-MB-231; assay: Antiproliferative activity against human MDA-MB-231 cells by SRB assay; format: functional
[37] = tested on: PC-3; assay: Antiproliferative activity against human PC3 cells by SRB assay; format: functional

Sequence of Rho-related GTP-binding protein RhoB (Homo sapiens) (P62745 whole entry): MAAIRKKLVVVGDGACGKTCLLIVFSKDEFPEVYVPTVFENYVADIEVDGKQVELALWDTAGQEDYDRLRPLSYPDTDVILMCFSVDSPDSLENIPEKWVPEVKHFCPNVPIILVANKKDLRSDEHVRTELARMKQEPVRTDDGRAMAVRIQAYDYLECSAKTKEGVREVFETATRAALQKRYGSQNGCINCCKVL

Structure (SMILES)	growth, % of control at 0.3 µM [1]	growth, % of control at 0.1 µM [2]	growth, % of control at 1 µM [3]	growth, % of control at 10 µM [4]	growth, % of control at 3 µM [5]	growth, % of control at 0.1 µM [6]	growth, % of control at 0.3 µM [7]	growth, % of control at 1 µM [8]	growth, % of control at 10 µM [9]	growth, % of control at 3 µM [10]	growth, % of control at 0.1 µM [11]	growth, % of control at 1 µM [12]	growth, % of control at 0.3 µM [13]	growth, % of control at 3 µM [14]	growth, % of control at 10 µM [15]	growth, % of control at 0.3 µM [16]	growth, % of control at 0.1 µM [17]	growth, % of control at 3 µM [18]	growth, % of control at 1 µM [19]	growth, % of control at 10 µM [20]	also measured
CCCCCCCCCCCCCC(=O)N(C)CCC[N+](C)(C)C	70.3%	85.1%	35.7%	13.7%	23.3%	95.2%	98.7%	88.9%	23.8%	54.6%	81.1%	72.4%	82.2%	41.2%	21.2%	99.1%	97.3%	8.98%	61.8%	-5.73%	growth, % of control at 0.1 µM [21]: 86.7%; growth, % of control at 1 µM [22]: 32.1%; growth, % of control at 0.3 µM [23]: 87.1%; growth, % of control at 3 µM [24]: -1.93%; growth, % of control at 0.1 µM [25]: 88%; growth, % of control at 10 µM [26]: -4.36%; growth, % of control at 0.3 µM [27]: 90.9%; growth, % of control at 3 µM [28]: 62%; growth, % of control at 1 µM [29]: 82.6%; growth, % of control at 10 µM [30]: 16.5%; Activity [31]: Active; GI50 [32]: 560 nM; GI50 [33]: 320 nM; GI50 [34]: 1720 nM; GI50 [35]: 1010 nM; GI50 [36]: 1780 nM; GI50 [37]: 320 nM
CCCCCCCCCCCCCCCCCC(=O)NCC(C)(C)C[N+](C)(C)C	72.3%	79.4%	46.7%	26.4%	17.7%	78.5%	78.8%	70.9%	26.8%	41.6%	86.5%	71.3%	79.6%	43.5%	45.8%	95.3%	97.1%	47.4%	86.3%	21.5%	growth, % of control at 0.1 µM [21]: 84.1%; growth, % of control at 1 µM [22]: 11.9%; growth, % of control at 0.3 µM [23]: 76.1%; growth, % of control at 3 µM [24]: -38.6%; growth, % of control at 0.1 µM [25]: 97.1%; growth, % of control at 10 µM [26]: -47%; growth, % of control at 0.3 µM [27]: 91.8%; growth, % of control at 3 µM [28]: 46%; growth, % of control at 1 µM [29]: 81.1%; growth, % of control at 10 µM [30]: 27.5%; Activity [31]: Active; GI50 [32]: 1710 nM; GI50 [33]: 450 nM; GI50 [34]: 1730 nM; GI50 [35]: 2300 nM; GI50 [36]: 1210 nM; GI50 [37]: 240 nM
CCCCCCCCCCCCCCCC(=O)N(C)CCC[N+](C)(C)C	68%	97%	4.68%	-38.4%	-31.9%	97.7%	96.1%	76.6%	21.7%	46.6%	91.6%	58.9%	86.8%	39.5%	1.49%	99.2%	98.7%	33.7%	76.5%	-14.1%	growth, % of control at 0.1 µM [21]: 106%; growth, % of control at 1 µM [22]: 47.2%; growth, % of control at 0.3 µM [23]: 108%; growth, % of control at 3 µM [24]: 0.07%; growth, % of control at 0.1 µM [25]: 98.7%; growth, % of control at 10 µM [26]: -16.5%; growth, % of control at 0.3 µM [27]: 99.1%; growth, % of control at 3 µM [28]: 54%; growth, % of control at 1 µM [29]: 82.7%; growth, % of control at 10 µM [30]: 29.6%; Activity [31]: Active; GI50 [32]: 960 nM; GI50 [33]: 190 nM; GI50 [34]: 1980 nM; GI50 [35]: 760 nM; GI50 [36]: 1420 nM; GI50 [37]: 490 nM
CCCCCCCCCCCCCC(=O)NCC(C)(C)C[N+](C)(C)C	104%	103%	84.7%	-33.6%	16.2%	98.5%	103%	90.2%	-11%	44%	94.5%	95.1%	96.2%	83.8%	28.7%	109%	147%	48.3%	104%	-26.6%	growth, % of control at 0.1 µM [21]: 97.9%; growth, % of control at 1 µM [22]: 64.1%; growth, % of control at 0.3 µM [23]: 94.5%; growth, % of control at 3 µM [24]: -13%; growth, % of control at 0.1 µM [25]: 102%; growth, % of control at 10 µM [26]: -44.4%; growth, % of control at 0.3 µM [27]: 101%; growth, % of control at 3 µM [28]: 92.5%; growth, % of control at 1 µM [29]: 97.9%; growth, % of control at 10 µM [30]: 33.1%; Activity [31]: Active; GI50 [32]: 1440 nM; GI50 [33]: 840 nM; GI50 [34]: 3700 nM; GI50 [35]: 3120 nM; GI50 [36]: 1310 nM; GI50 [37]: 510 nM
CCCCCCCCCCCCCCCC(=O)N(C)CC[N+](C)(C)C	57.7%	77.8%	26.8%	-19.4%	-0.9%	106%	100%	81.6%	-1.2%	41.4%	87.9%	42%	85.9%	31.9%	-19.1%	102%	101%	58%	83.7%	0%	growth, % of control at 0.1 µM [21]: 96%; growth, % of control at 1 µM [22]: 37.3%; growth, % of control at 0.3 µM [23]: 87.9%; growth, % of control at 3 µM [24]: 3.5%; growth, % of control at 0.1 µM [25]: 99.9%; growth, % of control at 10 µM [26]: -15.8%; growth, % of control at 0.3 µM [27]: 102%; growth, % of control at 3 µM [28]: 45.2%; growth, % of control at 1 µM [29]: 79.6%; growth, % of control at 10 µM [30]: 15.8%; Activity [31]: Active; GI50 [32]: 1540 nM; GI50 [33]: 170 nM; GI50 [34]: 1310 nM; GI50 [35]: 450 nM; GI50 [36]: 1140 nM; GI50 [37]: 370 nM
CCCCCCCCCCCCCCCC(=O)NCCC[N+](C)(C)C	109%	112%	72.8%	20.1%	34.9%	101%	98.3%	96.6%	25.1%	61.6%	97%	91.8%	94.4%	66%	42.5%	104%	106%	67.8%	93%	18.3%	growth, % of control at 0.1 µM [21]: 90.6%; growth, % of control at 1 µM [22]: 62.6%; growth, % of control at 0.3 µM [23]: 85.2%; growth, % of control at 3 µM [24]: 19.1%; growth, % of control at 0.1 µM [25]: 110%; growth, % of control at 10 µM [26]: -1.77%; growth, % of control at 0.3 µM [27]: 104%; growth, % of control at 3 µM [28]: 71.1%; growth, % of control at 1 µM [29]: 97.4%; growth, % of control at 10 µM [30]: 26.1%; Activity [31]: Active; GI50 [32]: 2150 nM; GI50 [33]: 1070 nM; GI50 [34]: 2560 nM; GI50 [35]: 3360 nM; GI50 [36]: 2180 nM; GI50 [37]: 600 nM
